Measurements reported in patent publication US20240315991A1, “USES OF HNF4 ALPHA AGONISTS” (Sanford Burnham Prebys Medical Discovery Institute, priority 2023, published 2024).
Entries after “also recorded” stand apart in the source; their conditions may differ.

Legend:
[1] = system: mitochondrial fatty acid oxidation (FAO) activity; test: Fatty acid oxidation assay in liver lysate; format: in vivo, mouse
Description: (§1) NCT oral administration. Four-week-old male C57BL/6J (JAX cat #000664) mice were purchased from Jackson laboratory and were maintained in a 12 h light/dark cycle throughout the experiment. Prior to the experiments, mice were acclimated for 2 weeks. Six-week-old mice with similar body weights were randomized to a normal diet (NC), a high fat diet (HFD) (Research Diets, cat #D12492 60 kcal % fat) or HFD containing 4000 ppm NCT (HFD+NCT) (Research Diets, 60 kcal % fat+4000 ppm NCT), which was calculated to provide approximately 400 mg/kg/d NCT. HFD chow containing NCT was made with gray dye to distinguish it from regular HFD chow that had green dye. Mice for each treatment group were placed in separate cages. Equal amounts of fresh chow were provided every week to all mice. Body weight gain and food intake were measured every week for 10 weeks. After 10 weeks of chow treatment, mice were sacrificed for analysis. All animal experiments were approved by the Institutional Animal Care and Use Committee (IACUC) of the Sanford Burnham Prebys Medical Discovery Institute in accordance with national regulations. Sample size was chosen based on the prior study of NCT delivered by IP injection.
Fatty acid oxidation assay. FAO in liver lysate was measured according to manufacturer's instructions using a calorimetric assay kit (Cat #E-141, Biomedical Research Service Center, State University of New York, Buffalo, NY).
Thus, the effect of NCT on FAO appeared to be a secondary rather than primary effect.

VDAC1 = VDAC1 immunofluorescence of liver sections; format: in vivo, mouse; conditions: HFD+NCT vs HFD, FIGS. 3A-3C
Description: as §1, with “All animal experiments were approved by the Institutional Animal Care and Use Committee (IACUC) of the Sanford Burnham Prebys Medical Discovery Institute in accordance with national regulations. Sample size was chosen based on the prior study of NCT delivered by IP injection.” left out
Immunofluorescence. […] Slides were mounted using fluorescence mounting medium and images were obtained at ×40 magnification using an Olympus IX71 fluorescence microscope. Fluorescence intensity of HNF4α-stained nuclei and VDAC stained mitochondria was calculated using MetaMorph TL software (version 7.6.5.0, Olympus). Fold change was calculated by normalizing to values from mice fed NC.

[2] = system: DNA encoding the mitochondrial genes ND1; test: Mitochondrial DNA analysis of liver, ND1; format: in vivo; conditions: mouse liver, HFD+NCT vs HFD, FIG. 3K
Description: as §1
Quantification of mtDNA was performed. […]

HSP60 mRNA = test: RT-PCR of mouse liver, HSP60; format: in vivo; conditions: HFD+NCT vs HFD, FIG. 3M
Description: as §1, with “All animal experiments were approved by the Institutional Animal Care and Use Committee (IACUC) of the Sanford Burnham Prebys Medical Discovery Institute in accordance with national regulations. Sample size was chosen based on the prior study of NCT delivered by IP injection.” left out
(§2) RT-PCR. […] Quantitative real time PCR (RT-PCR) analysis was performed using SYBR® Select Master Mix (Applied Biosystems) and an ABI 7900HT thermal cycler (Applied Biosystems, Thermo Fisher Scientific). Ct values were normalized to 18s rRNA and are expressed as fold change over samples from mice fed NC or cultured human hepatocytes without NCT.

Sirt3 mRNA = test: RT-PCR of mouse liver, Sirtuin3; format: in vivo; conditions: HFD+NCT vs HFD, FIG. 4E
Description: as §1, with “All animal experiments were approved by the Institutional Animal Care and Use Committee (IACUC) of the Sanford Burnham Prebys Medical Discovery Institute in accordance with national regulations. Sample size was chosen based on the prior study of NCT delivered by IP injection.” left out
as §2

TNFα mRNA = test: RT-PCR of mouse liver, TNFα; format: in vivo; conditions: HFD+NCT vs HFD, FIG. 5B
Description: as §1, with “All animal experiments were approved by the Institutional Animal Care and Use Committee (IACUC) of the Sanford Burnham Prebys Medical Discovery Institute in accordance with national regulations. Sample size was chosen based on the prior study of NCT delivered by IP injection.” left out
as §2

nitric oxide (NO) = test: Nitric oxide assay in mouse liver; format: in vivo; conditions: HFD+NCT vs HFD, FIG. 5G
Description: as §1, with “All animal experiments were approved by the Institutional Animal Care and Use Committee (IACUC) of the Sanford Burnham Prebys Medical Discovery Institute in accordance with national regulations. Sample size was chosen based on the prior study of NCT delivered by IP injection.” left out
T6PNE cells were maintained in RPMI (5.5 mM glucose, Corning) supplemented with 10% fetal bovine serum (FBS, Sigma-Aldrich) and 1% penicillin-streptomycin (pen-strep, Gibco) in 5% CO2 at 37° C. […] NO was measured with the QuantiChrom Nitric Oxide Assay kit (D2NO-100, BioAssay Systems). […] Samples and standard from kit were incubated with reagents for 20 min at 60° C. and measured OD 540 nm.

PPARGC1A mRNA = test: RT-PCR of primary human hepatocytes, PPARGC1A; format: cell-based; conditions: HEP-fat media, NCT 5, 15, and 40 μM, FIG. 4F
Description: Primary human hepatocytes. Experiments with primary human hepatocytes were performed by CN-Bio (Cambridge, UK). Briefly, primary human hepatocytes (PHHs), human Kupffer cells (HKs) and human stellate cells (HSCs) were seeded onto CN-Bio's PhysioMimix LC12 MPS culture plates at 6×10^5 cells for PHHs and 6×10^4 cells for HKs and HSCs in 1.6 ml of CN-Bio's HEP-lean media with 5% FCS. Throughout the experiment the cells were maintained at a flow rate of 1 μl/s. After 24 hours (Day 1) of seeding, the media was changed to HEP-lean media and the cells were incubated until day 4 to allow the cells to form microtissues. At day 4 post seeding, media was changed to HEP-fat media and treated with DMSO or NCT (5, 15, and 40 μM). Media was replaced on days 6 and 8. Cells were harvested on day 10 for RNA extraction and culture media was collected for ELISA analysis.
as §2

cytochrome C mRNA = test: RT-PCR of mouse liver, cytochrome C; format: in vivo; conditions: HFD vs. HFD+NCT, FIG. 3G
Description: as §1, with “All animal experiments were approved by the Institutional Animal Care and Use Committee (IACUC) of the Sanford Burnham Prebys Medical Discovery Institute in accordance with national regulations. Sample size was chosen based on the prior study of NCT delivered by IP injection.” left out
as §2

[3] = liver lysate, HFD+NCT vs HFD, 10 weeks

O=C(/C=C/c1ccc(O)c(O)c1)NCCc1ccc(O)cc1 [NCT, N-trans caffeoyltyramine]
FAO activity in the presence of octanoyl CoA [1, 3]: increase | baseline FAO activity in the absence of octanoyl CoA [1, 3]: increase | overall FAO activity in the assay [1, 3]: unchanged; also recorded: non-significant | fatty acid oxidation ([1]; mice fed HFD containing NCT vs HFD alone): increased | VDAC1 level in liver (VDAC1): reverse the depression | level of DNA encoding the mitochondrial genes ND1 [2]: increase | HSP60 mRNA level in liver (HSP60 mRNA): reverse the induction | Sirt3 mRNA in mouse liver (Sirt3 mRNA): reverse the depression | TNFα level in livers of mice on HFD (TNFα mRNA): decreased | TNFα level in livers of mice on HFD (TNFα mRNA; listed as Compound A): decrease | level of NO in the livers of mice fed on HFD (nitric oxide (NO)): decrease | PPARGC1A(PGC1a) mRNA in primary human hepatocytes (PPARGC1A mRNA): increase | cytochrome C mRNA levels in mouse livers (cytochrome C mRNA): non-significant
